Experimental findings from patent US10034836B2, “Formulations of guanylate cyclase C agonists and methods of use” (SYNERGY PHARMACEUTICALS, INC., priority 2008, dated 2018) are described below.

In one assay the test system is mice treated with TNBS. In words: Stool consistency in TNBS-induced murine model of colitis. Type of assay: in vivo. The settings on record: oral administration (FIG. 13). An excerpt:
The anal administration of trinitrobenzene sulphonic acid (TNBS) is typically used to produce intestinal blockage, resulting in poor stool consistency.

The subject of the next assay is BDF1 mice. In words: DSS-induced colitis in BDF-1 mice. The settings on record: 5% DSS, 80 mg/kg oral gavage daily (positive control). Type of assay: in vivo. On the procedure:
The cGMP pathway mediates the anti-inflammatory effects of cellular molecules such as nitric oxide and heme oxygenase-1. […] The anti-inflammatory effects of the GCC agonist SP-304 were evaluated in a murine model of ulcerative colitis, the DSS-induced colitis model.
Forty eight BDF1 mice were divided into 8 treatment groups (6 mice/group). One group was not exposed to DSS (untreated control) and groups […] were treated with 5% DSS in the drinking water. DSS was refreshed daily. All mice were weighed on day −1, and treated with the test materials beginning on day −1. 4 hrs post dosing on Day 0, DSS was placed in the drinking water of groups 2-8 and DSS remained in the water until the end of the study. The test agents were administered at 9 AM daily until day 7. Animals were treated with a single dose of test agents and the groups were as follows:
All doses were administered by oral gavage using a 0.1 ml dose per 10 g body weight. To avoid cage-to-cage variation, different treatment groups were housed in the same cage and animals were ear punched for identification purposes. Mice were sacrificed on day 7, 4-6 hrs post last dosing. […] All slides were scored in a blinded manner.
Five different sections of the tissue were examined for histopathological scoring and the scores were averaged for each mouse. The histopathology scores in FIG. 17 are expressed as an average of 6 mice.

With `O=C(O)c1cc(/N=N/c2ccc(S(=O)(=O)Nc3ccccn3)cc2)ccc1O` [Sulfasalazine], the “stool consistency in mice treated with TNBS” value with mice treated with TNBS is listed as “restored normal stool consistency”. Moreover, the “severity of inflammation in large intestine (histopathology score)” value with BDF1 mice is “considerably reduced”.
